Data published in patent US11109593B2, “Isoxazolin-5-one derivative and herbicide containing same as active ingredient” (HOKKO CHEMICAL INDUSTRY CO., LTD., priority 2017, dated 2021).

Columns and labels:
Type in all cases: in vivo
[1] = system: Echinochloa crus-galli; assay: Test Example 3: herbicidal effect test by treatment of dry field farming soil (one day after seeding); conditions: 120 g/10a active ingredient, evaluated 14 days after treatment
Method in brief: (§1)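 Alluvial dry-field soil in pots, top 1 cm mixed with 20 seeds per weed species. One day after seeding, the water-diluted emulsion was sprayed onto the soil surface at 100 L per 10 ares (120 g active ingredient per 10 ares). Duplicate pots; herbicidal rate (%) from plant dry weight versus untreated, 14 days after treatment.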

[2] = system: southern crabgrass; assay: as above; conditions: 120 g/10a active ingredient, evaluated 14 days after treatment
Method in brief: as §1

[3] = system: Amaranthus viridis; assay: as above; conditions: 120 g/10a active ingredient, evaluated 14 days after treatment
Method in brief: as §1

[4] = system: Chenopodium album; assay: as above; conditions: 120 g/10a active ingredient, evaluated 14 days after treatment
Method in brief: as §1

[5] = system: Echinochloa crus-galli; assay: Test Example 2: herbicidal effect test by treatment during growing period in paddy rice cultivation (seven days after seeding); conditions: 120 g/10a active ingredient, assessed 14 days after treatment, dry weight vs untreated area
Method in brief: (§2)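 Seeds sown 0–1 cm deep in puddled, fertilised paddy soil with about 3 cm standing water in a glass greenhouse. Diluted emulsion dropped into the water seven days after seeding at 120 g active ingredient per 10 ares. Herbicidal rate (%) from mean dry weight vs untreated, duplicate, 14 days after treatment.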

[6] = system: broad leaf weeds (Lindernia pyxidaria and Monochoria vaginalis); assay: as above; conditions: 120 g/10a active ingredient, assessed 14 days after treatment, dry weight vs untreated area
Method in brief: as §2

[7] = system: Scirpus juncoides; assay: as above; conditions: 120 g/10a active ingredient, assessed 14 days after treatment, dry weight vs untreated area
Method in brief: as §2

[8] = system: Echinochloa crus-galli; assay: Test Example 1: herbicidal effect test by treatment of rice paddy soil (immediately after seeding); conditions: 120 g/10a active ingredient, dry weight vs untreated area, 14 days after treatment
Method in brief: (§3)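 Pre-emergence paddy water application, 120 g a.i./10 ares, applied immediately post-seeding into ~3 cm flood; glasshouse; duplicate pots; dry weight at 14 d → % inhibition = (1 − treated/untreated) × 100.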

[9] = system: broad leaf weeds (Lindernia pyxidaria and Monochoria vaginalis); assay: as above; conditions: 120 g/10a active ingredient, dry weight vs untreated area, 14 days after treatment
Method in brief: as §3

[10] = system: Scirpus juncoides; assay: as above; conditions: 120 g/10a active ingredient, dry weight vs untreated area, 14 days after treatment
Method in brief: as §3

[11] = system: Echinochloa crus-galli; assay: Test Example 4: herbicidal effect test by treatment of leave and stem in dry field farming (seven days after seeding); conditions: 120 g/10a active ingredient; emulsion sprayed seven days after seeding; evaluated 14 days after treatment
Method in brief: (§4)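 Weeds were seeded at 20 seeds per species into the top 1 cm of alluvial upland soil in pots, then sprayed 7 days after seeding with water-diluted emulsifiable concentrate at 100 L/10 a, giving 120 g active ingredient/10 a. Duplicate pots; herbicidal rate (%) was 14 days post-treatment, from dry weight versus untreated.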

[12] = system: southern crabgrass; assay: as above; conditions: 120 g/10a active ingredient; emulsion sprayed seven days after seeding; evaluated 14 days after treatment
Method in brief: as §4

[13] = system: Amaranthus viridis; assay: as above; conditions: 120 g/10a active ingredient; emulsion sprayed seven days after seeding; evaluated 14 days after treatment
Method in brief: as §4

[14] = system: Chenopodium album; assay: as above; conditions: 120 g/10a active ingredient; emulsion sprayed seven days after seeding; evaluated 14 days after treatment
Method in brief: as §4

Row | SMILES | herbicidal rate, Echinochloa crus-galli [1] [%] | herbicidal rate, southern crabgrass [2] [%] | herbicidal rate, Amaranthus viridis [3] [%] | herbicidal rate, Chenopodium album [4] [%] | Herbicidal rate (%) Echinochloa crus-galli [5] [%] | Herbicidal rate (%) Lindernia pyxidaria [6] [%] | Herbicidal rate (%) Monochoria vaginalis [6] [%] | Herbicidal rate (%) Scirpus juncoides [7] [%] | Herbicidal rate (%) Echinochloa crus-galli [8] [%] | Herbicidal rate (%) Lindernia pyxidaria [9] [%] | Herbicidal rate (%) Monochoria vaginalis [9] [%] | Herbicidal rate (%) Scirpus juncoides [10] [%] | herbicidal effect (herbicidal rate), Echinochloa crus-galli [11] [%] | herbicidal effect (herbicidal rate), southern crabgrass [12] [%] | herbicidal effect (herbicidal rate), Amaranthus viridis [13] [%] | herbicidal effect (herbicidal rate), Chenopodium album [14] [%]
1 | CCC(c1ccccc1)n1oc(=O)c(Cc2ccccc2N(S(=O)(=O)C(F)(F)F)S(=O)(=O)C(F)(F)F)c1C (centres unmarked) [Compound 1-1038] | 90 | 90 | 0 | 0 | 90 | 60 | 80 | 90 | 90 | 90 | 90 | 90 | 90 | 60 | 40 | 40
2 | CCOC(=O)N(c1ccccc1Cc1c(C)n(CC(C)CC)oc1=O)S(=O)(=O)C(F)(F)F (centres unmarked) [Compound 1-611] | 70 | 70 | 40 | 40 | 100 | 70 | 80 | 90 | 100 | 90 | 80 | 90 | 80 | 70 | 60 | 50
3 | CCC(C)CCn1oc(=O)c(Cc2ccccc2N(S(=O)(=O)C(F)(F)F)S(=O)(=O)C(F)(F)F)c1C (centres unmarked) [Compound 1-978] | 80 | 90 | 90 | 90 | 100 | 50 | 60 | 60 | 100 | 90 | 80 | 90 | 60 | 50 | 40 | 40
4 | Cc1c(Cc2ccccc2N(S(=O)(=O)C(F)(F)F)S(=O)(=O)C(F)(F)F)c(=O)on1CC[S+](C)[O-] (centres unmarked) [Compound 1-1005] | 60 | 40 | 40 | 40 | 90 | 70 | 90 | 90 | 90 | 60 | 70 | 90 | 60 | 40 | 40 | 40
5 | CCC(C)n1oc(=O)c(Cc2ccccc2N(C(=O)C(C)C)S(=O)(=O)C(F)(F)F)c1C (centres unmarked) [Compound 1-330] | 90 | 90 | 90 | 90 | 90 | 90 | 90 | 90 | 90 | 90 | 90 | 90 | 90 | 90 | 40 | 40
6 | Cc1c(Cc2ccccc2N(S(C)(=O)=O)S(=O)(=O)C(F)(F)F)c(=O)on1Cc1ccc(F)cc1 [Compound 1-906] | 100 | 90 | 50 | 70 | 90 | 100 | 100 | 100 | 100 | 100 | 100 | 100 | 90 | 50 | 100 | 50
7 | COCC(C)n1oc(=O)c(Cc2ccccc2N(C(C)=O)S(=O)(=O)C(F)(F)F)c1C (centres unmarked) [Compound 1-304] | 90 | 90 | 90 | 90 | 90 | 90 | 90 | 90 | 90 | 90 | 90 | 90 | 90 | 90 | 40 | 40
8 | C=CCOC(=O)N(c1ccccc1Cc1c(C)n(CC(C)C)oc1=O)S(=O)(=O)C(F)(F)F [Compound 1-707] | 90 | 90 | 90 | 90 | 90 | 90 | 90 | 90 | 90 | 90 | 90 | 90 | 90 | 90 | 40 | 40
